# Key:
# human CB1 receptor = target: T1, human CB1 receptor (Homo sapiens, UniProt P21554); experiment: intracellular cyclic AMP functional test in U373MG cells (HTRF cAMP Dynamic Kit); format: cell-based; conditions: U373MG cells naturally expressing the human CB1 receptor
# T1 construct: U373MG cells naturally expressing the human CB1 receptor; endogenous in cells; host or cells: U373MG cells
# Description: The compounds according to the invention have been the subject of pharmacological assays which make it possible to determine the activity with respect to human CB1-type cannabinoid receptors. The effectiveness of the compounds of formula (I) was determined in a functional test in which the activity of the CB1 cannabinoid receptors is measured (intracellular cyclic AMP test). The test for detecting intracellular cyclic AMP in U373MG cells naturally expressing the human CB1 receptor was carried out as described in the reference: Bouaboula et al., 1995, J. Biol. Chem. 270:13973-13980. The HTRF cAMP Dynamic Kit from CisBio was used to quantify the intracellular cyclic AMP. In this test, the IC50 values are between 0.001 μM and 1 μM.
# CB1 cannabinoid receptor = target: T2, CB1 cannabinoid receptor (Mus musculus, UniProt P47746); experiment: inhibition of gastrointestinal transit induced by racemic CP55,940 in mice (charcoal bolus); format: in vivo; conditions: male CD1 mice, 3 hours after administration of the product, CP55,940 0.15 mg/kg ip
# T2 construct: male CD1 mice receive the test product per os; from tissue; host or cells: whole animal, male CD1 mice (gastrointestinal tract)
# Description: Their antagonist activity was also shown by means of the model of inhibition of gastrointestinal transit induced by racemic CP55,940 (1RS, 3RS, 4RS)-3-[hydroxy-2-(1,1-dimethylheptyl)phenyl]-4-(3-hydroxypropyl)cyclohexan-1-ol) in mice, according to the method described by Rinaldi-Carmona et al., J. Pharmacol. Exp. Ther. 2004, 310, 905-914. Briefly, male CD1 mice receive the test product per os 30 minutes or 2 hours before administration of the racemic CP55,940 agonist ((1RS, 3RS, 4RS)-3-[hydroxy-2-(1,1-dimethylheptyl)phenyl]-4-(3-hydroxypropyl)cyclohexan-1-ol) (0.15 mg/kg ip in 10% cremophor). After a further 30 minutes, the animals receive a charcoal bolus po. Thirty minutes later, the animals are sacrificed by euthanasia (CO2/O2) and the intestine is dissected. The progression of the charcoal bolus in the intestine is expressed as percentage of the total length of the intestine.
# T1 sequence (P21554 whole entry): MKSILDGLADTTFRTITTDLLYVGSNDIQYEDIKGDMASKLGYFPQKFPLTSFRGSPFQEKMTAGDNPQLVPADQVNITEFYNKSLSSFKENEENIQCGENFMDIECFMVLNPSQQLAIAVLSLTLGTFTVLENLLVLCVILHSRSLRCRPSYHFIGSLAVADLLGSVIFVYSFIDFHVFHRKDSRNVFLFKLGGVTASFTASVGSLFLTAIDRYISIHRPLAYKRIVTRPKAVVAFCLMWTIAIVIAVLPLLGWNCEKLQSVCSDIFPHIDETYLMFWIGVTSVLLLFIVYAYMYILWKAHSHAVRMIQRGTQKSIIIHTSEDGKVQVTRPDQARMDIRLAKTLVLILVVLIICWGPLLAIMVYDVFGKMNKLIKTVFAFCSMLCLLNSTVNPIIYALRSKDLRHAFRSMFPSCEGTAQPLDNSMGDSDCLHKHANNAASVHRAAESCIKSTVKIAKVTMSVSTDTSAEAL
# T2 sequence (P47746 whole entry): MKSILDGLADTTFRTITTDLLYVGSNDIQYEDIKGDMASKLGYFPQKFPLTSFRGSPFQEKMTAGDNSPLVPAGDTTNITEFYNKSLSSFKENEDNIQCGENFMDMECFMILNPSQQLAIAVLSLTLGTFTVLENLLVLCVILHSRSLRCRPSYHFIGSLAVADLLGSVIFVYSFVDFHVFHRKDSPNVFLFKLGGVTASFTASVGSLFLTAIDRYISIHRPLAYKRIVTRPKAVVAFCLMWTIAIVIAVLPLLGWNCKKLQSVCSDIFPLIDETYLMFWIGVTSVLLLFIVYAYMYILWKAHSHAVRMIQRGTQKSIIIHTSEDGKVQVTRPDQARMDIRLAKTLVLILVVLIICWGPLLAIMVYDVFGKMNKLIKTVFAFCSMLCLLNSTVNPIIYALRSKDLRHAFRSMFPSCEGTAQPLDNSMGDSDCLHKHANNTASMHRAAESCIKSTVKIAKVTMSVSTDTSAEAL
SMILES,melting point [°C],IC50 (human CB1 receptor) [nM],also measured
"CS(=O)(=O)N(c1cc(F)cc(C(=O)NC2CCNC2=O)c1)C1CN(C(c2ccc(Cl)cc2)c2ccc(Cl)cc2)C1 (centres unmarked) [Compound No. 14, 3-[{1[bis(4-Chlorophenyl)methyl]azetidin-3-yl}(methyl-sulphonyl)amino]-5-fluoro-N-(2-oxopyrrolidin-3-yl)benzamide]",–,9,–
"CS(=O)(=O)N(c1cccc(C(=O)NC2CCS(=O)(=O)C2)c1)C1CN(C(c2ccc(Cl)cc2)c2ccc(Cl)cc2)C1 (centres unmarked) [Compound No. 2, 3-[{1-[bis(4-Chlorophenyl)methyl]azetidin-3-yl}(methylsulphonyl)amino]-N-(1,1-dioxidotetrahydrothiophen-3-yl)benzamide]",–,47,"percentage inhibition, gastrointestinal transit model (CB1 cannabinoid receptor; 2 mg/kg per os): 57%"
"CS(=O)(=O)N(c1cc(F)cc(C(=O)NC2CCNC2=O)c1)C1CN(C(c2ccc(Cl)cc2)c2ccc(Cl)cc2)C1 (single isomer, unassigned; (-)) [Compound No. 16, (−)-3-[{1-[bis(4-Chlorophenyl)methyl]azetidin-3-yl}(methylsulphonyl)amino]-5-fluoro-N-[2-oxopyrrolidin-3-yl]benzamide]",–,7,–
"CCN1CCCC1CNC(=O)c1cccc(N(C2CN(C(c3ccc(Cl)cc3)c3ccc(Cl)cc3)C2)S(C)(=O)=O)c1 (single isomer, unassigned; (-)) [Compound No. 5, (−)-3-[{1-[bis(4-Chlorophenyl)methyl]azetidin-3-yl}(methyl-sulphonyl)amino]-N-{[1-ethylpyrrolidin-2-yl]methyl}benzamide]",128,–,"percentage inhibition, gastrointestinal transit model (CB1 cannabinoid receptor; 1 mg/kg per os): 39%"
"CCN1CCCC1CNC(=O)c1cccc(N(C2CN(C(c3ccc(Cl)cc3)c3ccc(Cl)cc3)C2)S(C)(=O)=O)c1 (single isomer, unassigned; (+)) [Compound No. 6, (+)-3-[{1[bis(4-Chlorophenyl)methyl]azetidin-3-yl}(methyl-sulphonyl)amino]-N-{[1-ethylpyrrolidin-2-yl]methyl}benzamide]",122,–,–

# The next lines start with results.
melting point [°C],IC50 (human CB1 receptor) [nM],SMILES,also measured
210,–,"CS(=O)(=O)N(c1cccc(C(=O)NC2CCSCC2)c1)C1CN(C(c2ccc(Cl)cc2)c2ccc(Cl)cc2)C1 [compound 10, 3-[{1-[bis(4-chlorophenyl)methyl]azetidin-3-yl}(methylsulphonyl)amino]-N-(tetrahydro-2H-thiopyran-4-yl)benzamide]",–
130,130,"CS(=O)(=O)N(c1cccc(C(=O)NCCN2CCNC2=O)c1)C1CN(C(c2ccc(Cl)cc2)c2ccc(Cl)cc2)C1 [compound 9, 3-[{1-[bis(4-chlorophenyl)methyl]azetidin-3-yl}(methylsulphonyl)amino]-N-[2-(2-oxoimidazolidin-1-yl)ethyl]benzamide]",–
270,–,"CS(=O)(=O)N(c1cccc(C(=O)NC2CCS(=O)(=O)CC2)c1)C1CN(C(c2ccc(Cl)cc2)c2ccc(Cl)cc2)C1 [compound 11, 3-[{1-[bis(4-chlorophenyl)methyl]azetidin-3-yl}(methylsulphonyl)amino]-N-(1,1-dioxidotetrahydro-2H-thiopyran-4-yl)benzamide]",–

# From patent US20110183961A1, “AZETIDINE POLYSUBSTITUTED COMPOUNDS, PREPARATION THEREOF, AND THERAPEUTIC APPLICATION THEREOF” (SANOFI-AVENTIS, priority 2008, published 2011)
